This note sets out measurements from patent publication US20140088187A1, “ANDROGEN RECEPTOR INHIBITORS AND METHODS OF USE THEREOF” (BETH ISRAEL DEACONESS MEDICAL CENTER, priority 2010, published 2014).

Experiment [1] has as its target T1, wild-type AR in PC3-AR cells (Homo sapiens, UniProt P10275).
T1 construct: expressed in transfected cells
T1 sequence (P10275 1-920): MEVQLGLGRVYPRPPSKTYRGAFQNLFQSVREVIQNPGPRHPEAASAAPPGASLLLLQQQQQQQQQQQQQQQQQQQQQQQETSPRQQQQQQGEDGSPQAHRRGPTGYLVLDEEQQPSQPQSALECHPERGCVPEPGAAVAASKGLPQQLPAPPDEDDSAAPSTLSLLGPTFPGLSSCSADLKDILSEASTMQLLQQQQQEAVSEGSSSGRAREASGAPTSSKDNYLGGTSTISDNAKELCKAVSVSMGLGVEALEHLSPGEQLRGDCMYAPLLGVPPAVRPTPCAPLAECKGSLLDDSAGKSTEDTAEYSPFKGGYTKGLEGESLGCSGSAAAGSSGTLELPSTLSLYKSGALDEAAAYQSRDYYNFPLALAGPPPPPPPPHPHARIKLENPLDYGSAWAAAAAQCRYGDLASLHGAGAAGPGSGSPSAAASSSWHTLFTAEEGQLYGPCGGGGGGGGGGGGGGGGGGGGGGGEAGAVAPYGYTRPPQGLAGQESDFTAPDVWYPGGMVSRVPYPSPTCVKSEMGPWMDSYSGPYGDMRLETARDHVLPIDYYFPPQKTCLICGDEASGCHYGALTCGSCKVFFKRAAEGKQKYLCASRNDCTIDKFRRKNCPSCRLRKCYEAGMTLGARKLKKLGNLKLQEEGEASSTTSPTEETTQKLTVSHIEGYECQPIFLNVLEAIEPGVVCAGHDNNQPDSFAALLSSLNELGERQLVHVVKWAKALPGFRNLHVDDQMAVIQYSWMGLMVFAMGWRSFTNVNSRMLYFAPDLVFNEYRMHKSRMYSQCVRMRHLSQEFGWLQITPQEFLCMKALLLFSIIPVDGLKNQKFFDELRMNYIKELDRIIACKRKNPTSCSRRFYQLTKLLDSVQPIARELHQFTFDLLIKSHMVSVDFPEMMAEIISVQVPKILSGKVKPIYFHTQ
As to the kind of experiment: AR protein levels and degradation (cycloheximide) in PC3-AR cells. In kind it is cell-based. The protocol:
(§1) As LNCaP and C4-2 cells express the T877A mutant AR, we next examined PC3-AR cells expressing wildtype AR. As observed in C4-2 cells, A89 caused a decrease in AR protein levels (FIG. 10d). To further validate that this was due to increased AR protein degradation, we pretreated these cells with A89 for 2 hours and then blocked new protein synthesis with cycloheximide (CHX). […] We finally examined VCaP cells.

For a further experiment, the target named is T2, AR WT (Homo sapiens, UniProt P10275).
T2 construct: The AR WT construct expresses full-length human AR under cmv promoter control; expressed in transfected cells; host or cells: COS7
T2 sequence (P10275 1-920): T1 sequence (P10275 1-920)
As to the kind of experiment: AR expression levels in transiently transfected COS7 cells, AR WT. In kind it is cell-based. As to conditions: 24 hours.

Experiment [2] deals with T3, endogenous wildtype AR in VCaP cells (Homo sapiens, UniProt P10275).
T3 construct: endogenous in cells; host or cells: VCaP
T3 sequence (P10275 1-920): T1 sequence (P10275 1-920)
As to the kind of experiment: AR protein degradation with CHX in VCaP cells. The class given is cell-based. As to conditions: CHX 100 nM, A89 50 μM. As for the experimental part:
as §1

The target of a further experiment is T4, AR in C4-2 cells (Homo sapiens, UniProt P10275, T878A).
T4 sequence (P10275 1-920 T878A): T1 sequence (P10275 1-920) with T878A

A further experiment deals with T5, wildtype AR (Homo sapiens, UniProt P10275).
T5 construct: The AR WT construct expresses full-length human AR under cmv promoter control; expressed in transfected cells; host or cells: COS7
T5 sequence (P10275 1-920): T1 sequence (P10275 1-920)
As to the kind of experiment: AR-responsive firefly luciferase reporter assay in COS7 cells transfected with AR (DHT-stimulated AR activity). The note with it: relative to initial chemotype A compounds; data not shown. The class given is cell-based. An excerpt: FIG. 13. Antagonist activity of generation 4 compounds at 25 micromolar. […] Reporter firefly luciferase is corrected for control Renilla activity.
FIG. 14. Antagonist activity of generation 4 compounds at 1-10 micromolar. […] Reporter firefly luciferase is corrected for control Renilla activity. […]
The AR-responsive firefly luciferase reporter consists of 4 tandem repeats of the consensus steroid response element cloned upstream of the pGL3-Basic Luciferase vector (Promega). The AR WT construct expresses full-length human AR under cmv promoter control.
Luciferase activity was determined using the Dual-Luciferase Reporter Assay System (Promega E1910).

[3] abbreviates: steroid depleted medium, data not shown.
Where [4] appears, read: steroid depleted medium, dose response.

Substitutions are numbered along the chain they refer to. “Also recorded” adds a separate entry of the source.

As to `CCOc1cc(F)c(S(=O)(=O)NCc2ccc3c(c2)OCO3)cc1F` [Compound A89, N-(1,3-benzodioxol-5-ylmethyl)-4-ethoxy-2,5-difluorobenzenesulfonamide], the “time within which AR protein decreased” value in experiment [1] (A89 10 μM, PC3-AR cells) was no more than 4 h. In experiment [1] (A89 treated PC3-AR cells plus CHX), the “time within which total AR protein dramatically decreased after cycloheximide (CHX)” value was no more than 1 h. In experiment [1] (PC3-AR cells expressing wildtype AR), the AR protein levels entry is recorded as “decrease”. Besides, the “AR protein levels after cycloheximide” value in experiment [1] (PC3-AR cells pretreated with A89 for 2 hours, then 1 hour CHX, versus CHX alone) is given as “declined markedly”. Besides, the “AR WT protein levels” value on AR WT is listed as “decreased in a dose dependent manner”. Also, in experiment [2], the “degradation of endogenous wildtype AR” value is “increased degradation”. At AR in C4-2 cells (24 hours (FIG. 10a)), the “basal PSA” value is reported as “decrease in basal PSA” and the “total AR protein levels” value was “noteworthy decrease”. The “decrease in AR protein in the presence of proteasome inhibitor” value at AR in C4-2 cells (proteasome inhibitors (MG115 and MG132)) is reported as “blocked in the presence of a proteasome inhibitor”. On AR in C4-2 cells (setting [3]), the PSA expression entry is given as “reduced” and the “nuclear AR levels” value is “reduced nuclear AR levels”. Moreover, at AR in C4-2 cells (setting [4]), the AR protein entry is listed as “dose dependent decrease” and the PSA levels result is recorded as “dose dependent decrease”. The “potency in antagonizing AR activity in luciferase reporter assays” value at wildtype AR is “increased potency; also recorded: relatively higher potency”.
